From patent US8933067B2, “Pyrido and pyrimidopyrimidine derivatives as anti-profilerative agents” (Janssen Pharmaceutica N.V., priority 2003, dated 2015)

Legend:
SKOV3 cells = assay: Serum starved, EGF stimulated proliferation assay on ovarian carcinoma SKOV3 cells (MTT); type: cell-based; conditions: Homo sapiens, SK-OV-3; EGF 100 ng/ml, 72 hours, serum free; pIC50; read-out: SKOV3 cell (C2): IC50 (converted)
Protocol: The ovarian carcinoma cell line (SKOV3) was used in an epidermal growth factor stimulated cell proliferation assay, to assess the inhibitory effect of the compounds on EGF in whole cells.
In a first step the SKOV3 cells were incubated for 24 hours in the presence of 10% FCS serum. In the second step the cells were incubated with the compounds to be tested in a serum free condition (37° C. and 5% (v/v) CO2) and subsequently stimulated for 72 hours with EGF at a final concentration of 100 ng/ml. The effect of the compounds on the EGF stimulation was finally assessed in a standard MTT cell viability assay.

EGFR-kinase domain = molecular target: T1, EGFR-kinase domain (Homo sapiens, UniProt P00533); assay: In vitro inhibition of EGFR (Flash Plate or glass-fiber filter kinase assay); type: biochemical; conditions: pIC50; read-out: In vitro kinase activity assay.(C1): IC50 (converted)
T1 construct: 0.35 μg/well poly(GT)biotin and 0.5 μg EGFR-kinase domain/well
T1 sequence (P00533 712-979 limits assumed): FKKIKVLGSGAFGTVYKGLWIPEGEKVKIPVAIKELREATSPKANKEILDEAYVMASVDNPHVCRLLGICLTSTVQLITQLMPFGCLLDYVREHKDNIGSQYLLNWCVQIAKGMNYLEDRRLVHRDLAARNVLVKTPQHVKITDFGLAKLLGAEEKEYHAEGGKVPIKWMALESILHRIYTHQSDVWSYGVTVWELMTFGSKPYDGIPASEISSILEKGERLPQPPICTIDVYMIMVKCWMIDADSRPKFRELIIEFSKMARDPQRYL
Protocol: The in vitro inhibition of EGFR was assessed using either the Flash Plate technology or the glass-fiber filter technology as described by Davies, S. P. et al., Biochem J. (2000), 351; p. 95-105. The Flash Plate technology is generally described by B. A. Brown et al. in High Throughput Screening (1997), p. 317-328. Editor(s): Devlin, John P. Publisher: Dekker, New York, N.Y.
In the Flash Plate EGFR kinase reaction assay, a kinase substrate consisting of biotinylated poly(L-glutamic acid-L-tyrosine) (poly(GT)biotin), is incubated with the aforementioned protein in the presence of (^33P) radiolabeled ATP. (^33P) phosphorylation of the substrate is subsequently measured as light energy emitted using a streptavidin-coated Flash Plate (PerkinElmer Life Sciences) by trapping and quantifying the binding of the biotin tagged and radiolabeled substrate.
The EGFR kinase reaction is performed at 30° C. for 60 minutes in a 96-well microtiter FlashPlate (PerkinElmer Life Sciences). For each of the tested compounds a full dose response 1.10^−6M to 1.10^−10M has been performed. IRESSA® and Tarceva™ (erlotinib) were used as reference compounds. The 100 μl reaction volume contains 54.5 mM TrisHCl pH 8.0, 10 mM MgCl2, 100 μM Na3VO4, 5.0 μM unlabeled ATP, 1 mM DTT, 0.009% BSA, 0.8 μCi AT^33P, 0.35 μg/well poly(GT)biotin and 0.5 μg EGFR-kinase domain/well.
The reaction is stopped by aspirating the reaction mixture and washing the plate 3× with 200 μl wash/stop buffer (PBS+100 mM EDTA). After the final wash step 200 μl of wash/stop buffer was added to each well and the amount of phosphorylated (^33P) Poly(GT)biotin determined by counting (30 sec/well) in a microtiterplate scintillation counter.
In the glass-fiber filter technology EGFR kinase reaction assay, a kinase substrate consisting of poly(L-glutamic acid-L-tyrosine) (poly(GT)), is incubated with the aforementioned protein in the presence of (^33P) radiolabeled ATP. (^33P) Phosporylation of the substrate is subsequently measured as radioactivity bound on a glassfiber-filter.
The EGFR kinase reaction is performed at 25° C. for 10 minutes in a 96-well microtiterplate. For each of the tested compounds a full dose response 1.10^−6M to 1.10^−10M has been performed. IRESSA® and Tarceva™ (erlotinib) were used as reference compounds. The 25 μl reaction volume contains 60 mM TrisHCl pH 7.5, 3 mM MgCl2, 3 mM Mn Cl2, 3 μM Na3VO4, 50 μg/ml PEG20000, 5.0 μM unlabeled ATP, 1 mM DTT, 0.1 μCi AT^33P, 62.5 ng/well poly(GT) and 0.5 μg EGFR-kinase domain/well.
The reaction is stopped by adding 5 μl of a 3% phosphoric acid solution. 10 μl of the reaction mixture is then spotted onto a Filtermat A filter (Wallac) and washed 3 times for 5 min. in 75 mM phosphoric acid and 1 time for 5 min. in methanol prior to drying and quantification on the Typhoon (Amersham) using a LE phosphorage storage screen.

IC50 (SKOV3 cells) | IC50 (EGFR-kinase domain) | melting point | SMILES
589 nM | 5.01 nM | – | Clc1ccc2c(c1)Nc1ncnc3ccc(nc13)NCCCCCCO2 [Compound 1, 7H,19H-4,6-ethanediylidenepyrimido[4,5-b][13,1,4,6]benzoxatriazacyclopentadecine, 17-chloro-8,9,10,11,12,13-hexahydro-]
> 10000 nM | 3.16 nM | > 260 °C | Clc1ccc2c(c1)Nc1ncnc3cnc(nc13)NCCCCCCO2 [Compound 2, 6,4-(nitrilometheno)pyrimido[4,5-b][13,1,4,6]benzoxatriazacyclopentadecine, 17-chloro-7,8,9,10,11,12,13,19-octahydro-]
3160 nM | 6.31 nM | – | OCCCCCCNc1ccc2ncnc(Nc3cc(Cl)ccc3O)c2n1 [Intermediate 2, phenol, 4-chloro-2-[[6-[(6-hydroxyhexyl)amino]pyrido[3,2-d]pyrimidin-4-yl]amino]-]
794 nM | 3.98 nM | – | OCCCCNc1ccc2ncnc(Nc3cc(Cl)ccc3O)c2n1 [Intermediate 3, phenol, 4-chloro-2-[[6-[(4-hydroxybutyl)amino]pyrido[3,2-d]pyrimidin-4-yl]amino]-]
1580 nM | 5.01 nM | – | OCCCCCNc1ccc2ncnc(Nc3cc(Cl)ccc3O)c2n1 [Intermediate 4, phenol, 4-chloro-2-[[6-[(5-hydroxypentyl)amino]pyrido[3,2-d]pyrimidin-4-yl]amino]-]
1000 nM | 3.98 nM | – | OCCCCCCNc1ncc2ncnc(Nc3cc(Cl)ccc3O)c2n1 [Intermediate 6, phenol, 4-chloro-2-[[6-[(6-hydroxyhexyl)amino]pyrimido[5,4-d]pyrimidin-4-yl]amino]-]
